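Protocol summary: plate cells (96-well), add compound at 5 concentrations, incubate 48 h, interpolate endpoints linearly. TGI denotes the concentration required for complete inhibition of growth.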
Tests used:
Assay in all cases: growth of human tumour cells (NCI), 48 h
[1] = test system: NCI-H522 lung
[2] = test system: T-47D breast
[3] = test system: DU-145 prostate
[4] = test system: 786-0 renal
[5] = test system: SF-268 CNS
[6] = test system: MOLT-4 leukemia
[7] = test system: OVCAR-5 ovarian
[8] = test system: COLO 205 colon
[9] = test system: A549 NSCLC
[10] = test system: BT-549 breast
[11] = test system: RPMI-8226 leukemia
[12] = test system: SN12C renal
[13] = test system: SK-MEL-5 melanoma
[14] = test system: SW-620 colon
[15] = test system: NCI-H460 lung
[16] = test system: K-562 leukemia
[17] = test system: TK-10 renal
[18] = test system: NCI/ADR-RES ovarian
[19] = test system: HT29 colon
[20] = test system: MDA-MB-435
[21] = test system: M14 melanoma
[22] = test system: U251 CNS
[23] = test system: NCI-H226 lung
[24] = test system: UO-31 renal
[25] = test system: OVCAR-8 ovarian
[26] = test system: SK-MEL-28 melanoma
[27] = test system: HCT-15 colon
[28] = test system: HS 578T breast
[29] = test system: HOP-92 NSCLC
[30] = test system: RXF 393 renal
[31] = test system: SK-MEL-2 melanoma
[32] = test system: SK-OV-3 ovarian
[33] = test system: PC-3 prostate
[34] = test system: HCT-116 colon
[35] = test system: IGROV1 ovarian
[36] = test system: ACHN renal
[37] = test system: LOX IMVI melanoma
[38] = test system: HCC-2998 colon
[39] = test system: MDA-N
[40] = test system: CCRF-CEM leukemia
[41] = test system: OVCAR-4 ovarian
[42] = test system: SNB-19 CNS
[43] = test system: MALME-3M melanoma
[44] = test system: CAKI-1 renal
[45] = test system: A498 renal
[46] = test system: EKVX NSCLC
[47] = test system: UACC-257 melanoma
[48] = test system: SNB-75 CNS
[49] = test system: NCI-H23 lung
[50] = test system: KM12 colon
[51] = test system: SF-295 CNS
[52] = test system: SF-539 CNS
[53] = test system: OVCAR-3 ovarian
[54] = test system: MDA-MB-231 breast
[55] = test system: HOP-62 NSCLC
[56] = test system: MCF7 breast
[57] = test system: UACC-62 melanoma

## CCOC(=O)C1=CC(C)(C(=O)OCC)Nc2c(nc(SC)[nH]c2=O)N1 (centres undefined)
[1]
  TGI: > 10 µM
[2]
  TGI: > 10 µM
[3]
  TGI: > 10 µM
[4]
  TGI: > 10 µM
[5]
  TGI: > 10 µM
[6]
  TGI: > 10 µM
[7]
  TGI: > 10 µM
[8]
  TGI: > 10 µM
[9]
  TGI: > 10 µM
[10]
  TGI: > 10 µM
[11]
  TGI: > 10 µM
[12]
  TGI: > 10 µM
[13]
  TGI: > 10 µM
[14]
  TGI: > 10 µM
[15]
  TGI: > 10 µM
[16]
  TGI: > 10 µM
[17]
  TGI: > 10 µM
[18]
  TGI: > 10 µM
[19]
  TGI: > 10 µM
[20]
  TGI: > 10 µM
[21]
  TGI: > 10 µM
[22]
  TGI: > 10 µM
[23]
  TGI: > 10 µM
[24]
  TGI: > 10 µM
[25]
  TGI: > 10 µM
[26]
  TGI: > 10 µM
[27]
  TGI: > 10 µM
[28]
  TGI: > 10 µM
[29]
  TGI: > 10 µM
[30]
  TGI: > 10 µM
[31]
  TGI: > 10 µM
[32]
  TGI: > 10 µM
[33]
  TGI: > 10 µM
[34]
  TGI: > 10 µM
[35]
  TGI: > 10 µM
[36]
  TGI: > 10 µM
[37]
  TGI: > 10 µM
[38]
  TGI: > 10 µM
[39]
  TGI: > 10 µM
[40]
  TGI: > 10 µM
[41]
  TGI: > 10 µM
[42]
  TGI: > 10 µM
[43]
  TGI: > 10 µM
[44]
  TGI: > 10 µM
[45]
  TGI: > 10 µM
[46]
  TGI: > 10 µM
[47]
  TGI: > 10 µM
[48]
  TGI: > 10 µM
[49]
  TGI: > 10 µM
[50]
  TGI: > 10 µM
[51]
  TGI: > 10 µM
[52]
  TGI: > 10 µM
[53]
  TGI: > 10 µM
[54]
  TGI: > 10 µM
[55]
  TGI: > 10 µM
[56]
  TGI: > 10 µM

## CC(C)(C)N1C(=O)N=[N+](/C(=C(\c2ccccc2)n2nc([O-])n(C(C)(C)C)c2=O)c2ccccc2)C1=O
[2]
  TGI: > 100 µM
[3]
  TGI: > 100 µM
[4]
  TGI: > 100 µM
[5]
  TGI: > 100 µM
[6]
  TGI: > 100 µM
[7]
  TGI: > 100 µM
[8]
  TGI: > 100 µM
[9]
  TGI: > 100 µM
[10]
  TGI: > 100 µM
[11]
  TGI: > 100 µM
[12]
  TGI: > 100 µM
[13]
  TGI: > 100 µM
[14]
  TGI: > 100 µM
[15]
  TGI: > 100 µM
[16]
  TGI: > 100 µM
[17]
  TGI: > 100 µM
[20]
  TGI: > 100 µM
[21]
  TGI: > 100 µM
[22]
  TGI: > 100 µM
[24]
  TGI: > 100 µM
[57]
  TGI: > 100 µM
[26]
  TGI: > 100 µM
[27]
  TGI: > 100 µM
[28]
  TGI: > 100 µM
[29]
  TGI: > 100 µM
[30]
  TGI: > 100 µM
[31]
  TGI: > 100 µM
[32]
  TGI: > 100 µM
[33]
  TGI: > 100 µM
[34]
  TGI: > 100 µM
[36]
  TGI: > 100 µM
[37]
  TGI: > 100 µM
[38]
  TGI: > 100 µM
[39]
  TGI: > 100 µM
[40]
  TGI: > 100 µM
[41]
  TGI: > 100 µM
[42]
  TGI: > 100 µM
[44]
  TGI: > 100 µM
[45]
  TGI: > 100 µM
[47]
  TGI: > 100 µM
[48]
  TGI: > 100 µM
[49]
  TGI: > 100 µM
[50]
  TGI: > 100 µM
[51]
  TGI: > 100 µM
[52]
  TGI: > 100 µM
[53]
  TGI: > 100 µM
[54]
  TGI: > 100 µM
[56]
  TGI: > 100 µM

Source: PubChem BioAssay (NCI)
